Where “and” joins values, the source holds several entries; their conditions need not be identical. Equal values may be shown once. Toxic doses and inconclusive results are not listed. Rule as the data show it: active = T/C of 150% or more; inactive = T/C below 125%.
Test system: L1210 leukemia ip in BDF1 mice, survival T/C
Assay: NCI In Vivo Anticancer Drug Screen. Data for tumor model L1210 Leukemia (intraperitoneal) in B6D2F1 (BDF1) mice
Settings: endpoint: mean survival time, higher = longer survival
In short: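 Antitumor effect is assessed in tumor-bearing animals. Survival in the compound arm is compared with a vehicle-dosed control arm and expressed as their quotient.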

[1] = dose: 100.0 mg/kg/injection, schedule: Q04DX003 (ip), vehicle: saline with Tween-80
[2] = dose: 200.0 mg/kg/injection, schedule: Q04DX003 (ip), vehicle: saline with Tween-80
[3] = dose: 400.0 mg/kg/injection, schedule: Q04DX003 (ip), vehicle: saline with Tween-80
[4] = dose: 100.0 mg/kg/injection, schedule: Q01DX001 (ip), vehicle: saline
[5] = dose: 200.0 mg/kg/injection, schedule: Q01DX001 (ip), vehicle: saline
[6] = dose: 400.0 mg/kg/injection, schedule: Q01DX001 (ip), vehicle: saline
[7] = dose: 100.0 mg/kg/injection, schedule: Q01DX009 (ip), vehicle: saline with Tween-80
[8] = dose: 100.0 mg/kg/injection, schedule: Q01DX009 (ip), vehicle: saline
[9] = dose: 100.0 mg/kg/injection, schedule: Q04DX003 (ip), vehicle: saline
[10] = dose: 200.0 mg/kg/injection, schedule: Q04DX003 (ip), vehicle: saline
[11] = dose: 400.0 mg/kg/injection, schedule: Q04DX003 (ip), vehicle: saline

Measured: T/C

O=S(=O)(F)/C=C/c1ccccc1
inactive: dose: 15.0 mg/kg/injection, schedule: Q01DX015 (ip), vehicle: saline 96 % of control | dose: 30.0 mg/kg/injection, schedule: Q01DX015 (ip), vehicle: saline 96 % of control | dose: 60.0 mg/kg/injection, schedule: Q01DX015 (ip), vehicle: saline 100 % of control | dose: 120.0 mg/kg/injection, schedule: Q01DX015 (ip), vehicle: saline 96 % of control

COc1cc(C(=O)O)cc(OC)n1
inactive: [1] 102 % of control | [2] 96 % of control | [3] 96 % of control

CC1OC(OC2CCC3(C)C(CCC4C3CC(O)C3(C)C(C5=CC(=O)OC5)CCC43O)C2)CC(O)C1OC1CC(O)C(OC2CC(O)C(OC3OC(CO)C(O)C(O)C3O)C(C)O2)C(C)O1 (stereo not drawn)
inactive: dose: 4.0 mg/kg/injection, schedule: Q01DX015 (sc), vehicle: steriod suspending solution 96 % of control | dose: 8.0 mg/kg/injection, schedule: Q01DX015 (sc), vehicle: steriod suspending solution 104 % of control | dose: 16.0 mg/kg/injection, schedule: Q01DX015 (sc), vehicle: steriod suspending solution 102 % of control | dose: 32.0 mg/kg/injection, schedule: Q01DX015 (sc), vehicle: steriod suspending solution 98 % of control | [4] 100 % of control | [5] 101 % of control | [6] 100 % of control

CCCCCCC(=O)/C=C\c1ccc([N+](C)(C)C)cc1
inactive: dose: 25.0 mg/kg/injection, schedule: Q01DX009 (sc), vehicle: steriod suspending solution 93 % of control | dose: 25.0 mg/kg/injection, schedule: Q04DX003 (sc), vehicle: steriod suspending solution 94 % of control | dose: 50.0 mg/kg/injection, schedule: Q01DX009 (sc), vehicle: steriod suspending solution 97 % of control | dose: 50.0 mg/kg/injection, schedule: Q04DX003 (sc), vehicle: steriod suspending solution 92 % of control | dose: 100.0 mg/kg/injection, schedule: Q01DX001 (sc), vehicle: steriod suspending solution 86 % of control | dose: 100.0 mg/kg/injection, schedule: Q04DX003 (sc), vehicle: steriod suspending solution 106 % of control

O=C1C2CCCC1C(c1ccccc1)C=C2c1ccc(O)cc1 (stereo not drawn)
inactive: [1] 97 % of control | [2] 96 % of control | [3] 94 % of control

OCCOc1nc(OCCO)c(Cl)c(C(Cl)(Cl)Cl)n1
inactive: [7] 98 % of control | dose: 200.0 mg/kg/injection, schedule: Q01DX009 (ip), vehicle: saline with Tween-80 93 % of control | dose: 400.0 mg/kg/injection, schedule: Q01DX009 (ip), vehicle: saline with Tween-80 86 % of control

CC(=O)CC(C)(C)C
inactive: [4] 102 % of control | [5] 98 % of control | [6] 91 % of control

N#CC(Cc1ccccc1Cl)(Cc1ccccc1Cl)c1ccccc1
inactive: dose: 100.0 mg/kg/injection, schedule: Q01DX009 (ip), vehicle: Klucel (hydroxypropylcellulose) (HPC) 110 % of control | dose: 100.0 mg/kg/injection, schedule: Q04DX003 (ip), vehicle: Klucel (hydroxypropylcellulose) (HPC) 108 % of control | dose: 200.0 mg/kg/injection, schedule: Q01DX009 (ip), vehicle: Klucel (hydroxypropylcellulose) (HPC) 105 % of control | dose: 200.0 mg/kg/injection, schedule: Q04DX003 (ip), vehicle: Klucel (hydroxypropylcellulose) (HPC) 94 % of control | dose: 400.0 mg/kg/injection, schedule: Q01DX009 (ip), vehicle: Klucel (hydroxypropylcellulose) (HPC) 105 % of control | dose: 400.0 mg/kg/injection, schedule: Q04DX003 (ip), vehicle: Klucel (hydroxypropylcellulose) (HPC) 108 % of control

COc1cc2c[n+](C)c3c4cc(OC)c(OC)cc4ccc3c2cc1OC
inactive: dose: 9.6 mg/kg/injection, schedule: Q01DX009 (ip), vehicle: saline with Tween-80 119 % of control | dose: 12.5 mg/kg/injection, schedule: Q01DX009 (ip), vehicle: water 111 % of control | dose: 14.0 mg/kg/injection, schedule: Q01DX009 (ip), vehicle: saline with Tween-80 115 % of control | dose: 25.0 mg/kg/injection, schedule: Q01DX009 (ip), vehicle: water 110 % of control and 122 % of control | dose: 50.0 mg/kg/injection, schedule: Q01DX009 (ip), vehicle: water 109 % of control and 114 % of control | [8] 123 % of control | [9] 100 % of control | dose: 100.0 mg/kg/injection, schedule: Q04DX003 (ip), vehicle: water 112 % of control | dose: 180.0 mg/kg/injection, schedule: Q01DX009 (ip), vehicle: saline 109 % of control | [10] 104 % of control | dose: 200.0 mg/kg/injection, schedule: Q04DX003 (ip), vehicle: water 113 % of control | dose: 240.0 mg/kg/injection, schedule: Q04DX003 (ip), vehicle: water 112 % of control | [11] 110 % of control | dose: 400.0 mg/kg/injection, schedule: Q04DX003 (ip), vehicle: water 107 % of control

O=C1c2cccc(Cl)c2C(=O)c2c(O)ccc(O)c21
inactive: dose: 100.0 mg/kg/injection, schedule: Q04DX002 (ip), vehicle: saline with Tween-80 87 % of control | dose: 200.0 mg/kg/injection, schedule: Q04DX002 (ip), vehicle: saline with Tween-80 97 % of control | dose: 400.0 mg/kg/injection, schedule: Q04DX002 (ip), vehicle: saline with Tween-80 97 % of control

CCC(CO)NC(=O)C(O)C(O)C(O)C(O)CO (stereo not drawn)
inactive: [9] 94 % of control | [10] 97 % of control | [11] 94 % of control

N/C(=N/N=C/c1ccccc1)N/N=C\c1ccccc1
inactive: dose: 15.0 mg/kg/injection, schedule: Q01DX Z (oral), vehicle: saline 95 % of control | dose: 30.0 mg/kg/injection, schedule: Q01DX Z (oral), vehicle: saline 95 % of control | dose: 60.0 mg/kg/injection, schedule: Q01DX Z (oral), vehicle: saline 91 % of control | dose: 120.0 mg/kg/injection, schedule: Q01DX Z (oral), vehicle: saline 95 % of control

COc1cc(I)c(CC(=O)O)cc1OC
inactive: [4] 97 % of control | [8] 93 % of control | [9] 96 % of control | [5] 97 % of control | dose: 200.0 mg/kg/injection, schedule: Q01DX009 (ip), vehicle: saline 91 % of control | [10] 96 % of control | [6] 96 % of control | dose: 400.0 mg/kg/injection, schedule: Q01DX009 (ip), vehicle: saline 96 % of control | [11] 90 % of control

N#CC1CC2c3ccccc3C1c1ccccc12 (stereo not drawn)
inactive: [1] 97 % of control | [2] 94 % of control | [3] 100 % of control

O=C(Nc1ccc(Cl)c(Cl)c1)c1ccco1
inactive: dose: 12.5 mg/kg/injection, schedule: Q01DX009 (ip), vehicle: saline with Tween-80 92 % of control and 93 % of control | dose: 25.0 mg/kg/injection, schedule: Q01DX001 (ip), vehicle: saline with Tween-80 97 % of control | dose: 25.0 mg/kg/injection, schedule: Q04DX002 (ip), vehicle: saline with Tween-80 116 % of control and 91 % of control | dose: 25.0 mg/kg/injection, schedule: Q04DX003 (ip), vehicle: saline with Tween-80 96 % of control | dose: 50.0 mg/kg/injection, schedule: Q01DX001 (ip), vehicle: saline with Tween-80 103 % of control | dose: 50.0 mg/kg/injection, schedule: Q04DX002 (ip), vehicle: saline with Tween-80 116 % of control and 91 % of control | dose: 50.0 mg/kg/injection, schedule: Q04DX003 (ip), vehicle: saline with Tween-80 93 % of control | dose: 100.0 mg/kg/injection, schedule: Q01DX001 (ip), vehicle: saline with Tween-80 109 % of control | [7] 93 % of control | [1] 95 % of control

C1CC2CCC[N+]3=C2C(C1)CCC3 (stereo not drawn)
inactive: dose: 12.0 mg/kg/injection, schedule: Q04DX003 (ip), vehicle: saline 93 % of control | dose: 12.5 mg/kg/injection, schedule: Q01DX009 (ip), vehicle: saline 97 % of control | dose: 25.0 mg/kg/injection, schedule: Q01DX009 (ip), vehicle: saline 101 % of control | dose: 25.0 mg/kg/injection, schedule: Q04DX003 (ip), vehicle: saline 91 % of control | dose: 50.0 mg/kg/injection, schedule: Q01DX009 (ip), vehicle: saline 101 % of control | dose: 50.0 mg/kg/injection, schedule: Q04DX003 (ip), vehicle: saline 101 % of control

C(=N\N1CCN(/N=C/c2cccc3ccccc23)CC1)/c1cccc2ccccc12
inactive: dose: 100.0 mg/kg/injection, schedule: Q01DX001 (ip), vehicle: carboxymethylcellulose (CMC) 93 % of control | dose: 200.0 mg/kg/injection, schedule: Q01DX001 (ip), vehicle: carboxymethylcellulose (CMC) 90 % of control | dose: 400.0 mg/kg/injection, schedule: Q01DX001 (ip), vehicle: carboxymethylcellulose (CMC) 88 % of control

CC(CCCCC1NC(=O)NC1C)C(=O)O (stereo not drawn)
inactive: [4] 95 % of control | [5] 90 % of control | [6] 90 % of control
